Results as given in patent US20230255954A1, “INTERLEUKIN 33 (IL-33) INHIBITION FOR TREATMENT OF CANCER, FIBROSIS AND INFLAMMATION” (The General Hospital Corporation, priority 2020, published 2023).

How the values were obtained:
[1] = tested on: mouse Il33 gene promoter (IL-33 promoter-luci reporter); test: IL-33 promoter luciferase screen of FDA-approved Drug Library; type: cell-based; conditions: 10 μM, 24 hours; IL-33 promoter-luci vs control-luci stable Pam212 cells; 1056 molecules tested
Description: Pam212 cells were grown at 37° C. in DMEM (Thermo Fisher Scientific, Waltham, Mass., catalog no. 11995065) supplemented with 10% fetal bovine serum (Thermo Fisher Scientific, catalog no. 26140079), 1× penicillin-streptomycin-glutamine (Thermo Fisher Scientific, catalog no. 10378016), 1×MEM non-essential amino acids solution (Thermo Fisher Scientific, catalog no. 11140050), 1×HEPES (Thermo Fisher Scientific, catalog no. 15630080) and 0.1% 2-Mercaptoethanol (Thermo Fisher Scientific, catalog no. 21985023). PyMT cell lines (derived from a primary breast tumor of MMTV-PyMrg mouse on a C57BL/6 background) were grown at 37° C. in RPMI Medium 1640 (Thermo Fisher Scientific, catalog no. 11875093) supplemented with 10% fetal bovine serum, 1× penicillin-streptomycin-glutamine and 0.1% 2-Mercaptoethanol. IL-33 promoter-luci vector (GeneCopoeia, Rockville, Md., catalog no. MPRM3494-PG02) or Control-luci vector (deletion form of IL-33 promoter region from IL-33 promoter-luci vector) or Poly (I:C) (Invivogen, San Diego, Calif., catalog no. tlrl-pic) in Pam212 cells were performed using Lipofectamine 2000 (Thermo Fisher Scientific, catalog no. 11668019) according to the manufacturer's instructions.
After transfection of plasmids in Pam212 cells, cells were incubated with 3 μg/ml of puromycin (Invivogen, San Diego, Calif., catalog no. ant-pr-1) for positive transfected cell selection. After following 2 days, medium was changed new puromycin contained medium for further selection. After following 2 days, cells were moved to new plate with puromycin contained medium. Puromycin selection was repeated for five times more.
1000 stable cells were seed to 384 wells (Corning, Glendale, Ariz., catalog no. 3570) and each of plate was incubated 24 hours. Following day, 10 μM of FDA-approved Drug Library compounds (Selleckchem, Houston, Tex., catalog no. L1300) were added to each well. After 24 hours, 5 μL of luciferase buffer from Pierce Gaussia luciferase glow assay kit (Thermo Fisher Scientific, Waltham, Mass., catalog no. 16160) were added each well and incubated for 5 min. Each plate was read and measured with luminescence by EnVision 2014 plate reader (Perkin Elmer, Waltham, Mass., catalog no. 2014 EnVision).
To make small molecule screening platform, we generated both IL-33 promoter-luci and control-luci over-expressed stable epithelial cell line (Pam212) by multiple puromycin selection strategy (FIG. 10A). To find molecules that can inhibit IL-33 expression, we tested 1056 FDA-approved small molecules against our reporter cell line. […] To find bona fide inhibitors of IL-33, we checked RNA level of Il33 by qPCR in cells treated with inducer of IL-33 expression, Poly (I:C). After cells were treated by Poly (I:C), RNA level of Il33 was increased compared to carrier group. However, Il33 RNA level was decreased by pitavastatin and tropisetron in Poly I:C-treated cells (FIGS. 10C and D). […] Finally, endogenous IL-33 protein level was decreased after treatment with pitavastatin in a dose-dependent manner (FIG. 10F). Therefore, pitavastatin is a small inhibitor molecule of IL-33.

[2] = tested on: IRF3 nuclear translocation; test: Nuclear fractionation assay, IRF3 in poly (I:C) treated Pam212 cells; type: cell-based, mouse
Description: Pam212 cell line was transfected with poly (I:C) using Lipofectamine 2000 according to the manufacturer's instructions. After 8 hours, cells were lysed using Nuclear Extraction Kit (Novus biologicals, Littleton, Colo., catalog no. NBP2-29447). Briefly, cells were washed with 1×PBS supplemented with PMSF (Novus biologicals, catalog no. KC-407). Cells were centrifuged for 5 min at 1,000 rpm. Cell pellets were resuspended in 1× cold hypotonic buffer (Novus biologicals, catalog no. KC-401) and incubated on ice for 15 min. After adding 10 μL of the 10% detergent solution (Novus biologicals, catalog no. KC-403), cell lysates were centrifuged 10 min at 14,000 rpm. The supernatants were kept as cytoplasmic fraction and the cell pellets were resuspended in 100 μL nuclear lysis buffer (Novus biologicals, catalog no. KC-402). Lysates from the pellets were sonicated for few seconds and incubated for 10 min at 4° C. Then, lysates were centrifuged at 14,000 rpm for 10 min. The supernatants were kept as nuclear fraction.
Next, to investigate the mechanism by which pitavastatin can block IL-33 expression, we first confirmed p-IRF3 expression level because IRF3 is a transcription factor of IL-33 expression. […] However, pitavastatin treatment with Poly (I:C) to Pam212 cells, level of p-IRF3 was decreased (FIG. 11A). […]

[3] = tested on: Caerulein-injected mouse pancreas; test: Caerulein chronic pancreatitis model with pitavastatin; type: in vivo
Description: Mice were weighed and injected with 50 μg/kg caerulein (BACHEM, Torrance, Calif., catalog no. 4030451) in 100 μL of PBS intraperitoneally every hour for 6 hours, three days per week for 3 weeks and mice were harvested.
1 mM of pitavastatin was dissolved in DMSO for stock, and then 100 uM was dissolved in PBS with caerulein for mice injection. Mice were injected with caerulein.
Tissue samples were collected and fixed in 4% paraformaldehyde (Millipore Sigma, catalog no. P6148) overnight at 4° C. Next, tissues were dehydrated in ethanol, processed and embedded in paraffin. 5 μm sections paraffin-embedded tissues were placed on slides, deparaffinized and stained with H&E or toluidine blue (for mast cell detection). For immunohistochemistry, antigen retrieval was performed in 500 μL of antigen unmasking solution (VECTOR Laboratories, Burlingame, Calif., catalog no. H3300) diluted in 50 mL water using Cuisinart pressure cooker for 20 min at high pressure. Slides were washed three times for three minutes each in 1×TBS with 0.025% Triton X-100. Sections were blocked with 1% bovine serum albumin (Thermo Fisher Scientific, catalog no. BP1600) and 5% goat serum (Millipore Sigma, catalog no. G9023) for 1 hour. Slides were stained overnight at 4° C. with a primary antibody diluted in TBS containing 1% BSA (Appendix Table S2). […]

With `O=C(O)C[C@H](O)C[C@H](O)/C=C/c1c(C2CC2)nc2ccccc2c1-c1ccc(F)cc1` [pitavastatin] the “IL-33/Control luminescence ratio (inhibitory effect against IL-33 reporter)” value [1] was “small molecule candidates”, the “IRF3 localization by nuclear fractionation” value [2] was “remains IRF3 in cytoplasm” and the severity of pancreatitis ([3]; 100 uM pitavastatin in PBS injected with caerulein, vs severe pancreatitis in caerulein plus carrier) was “mild pancreatitis”. For the same compound, the “inflammatory cell infiltrates in pancreas (H&E)” value ([3]; Caerulein-injected mouse pancreas with or without pitavastatin) was “reduction”.
